Laboratory results published in patent publication US6316014A, “Microcide composition” (Centro de Bioactivos Quimicos (CBQ), priority 1996, dated 2001).

Key:
Musa sp. = test: Development of "in vitro" plants of Musa sp., multiplication phase (scaleup); settings: scaleups, standard method 1%
Procedure: An effective washout of the flasks and lids to be used in the production of in vitro plants was conducted using detergent, rinsing them with sufficient water and to then submerging the bottles in a sodium hypochlorite solution at 0.5% for a time interval never smaller than 3 minutes. Afterwards, the flasks are placed upside down and they should be used totally dry before 24 hours.
Once the culture medium is prepared and reaches a temperature of approximately 60-80° C. it is added the necessary weight of the formulation to obtain a concentration of 35 μg/ml and, then the volume required is poured into each of the flasks proceeding to the planting procedure after 24 hours.
Two scaleup studies were conducted on a Musa sp. culture in the multiplication phase. The death rate percentage during the three assays was 0.81% for the scaleups conducted adding the active principle and 1% for the standard method.
Two scaleup studies were conducted on a Musa sp. culture in the multiplication phase.

[1] = Water solubility and dissolution of active principle; assay type: physicochemical
[2] = Thermal stability of active principle; assay type: physicochemical
bacteria and fungi = settings: EP-A 0 678 516; cited from earlier work
[3] = system: contamination of culture media; settings: plants cultivated in vitro; cited from earlier work

O=[N+]([O-])C(Br)=Cc1ccc(Br)o1 [1-(5-bromophur-2-yl)-2-bromo-2-nitroethene]
Death rate percentage (Musa sp.): 0.81%
Dissolution rate in an aqueous medium ([1]; aqueous medium): reduced dissolution rate
Water solubility ([1]; water): close-to-null water solubility
Thermally stable up to [2]: up to 110 °C
Antibacterial and antifungal activities (bacteria and fungi): powerful agent with antibacterial and antifungal activities

CO/N=C(\C(=O)N[C@@H]1C(=O)N2C(C(=O)O)=C(COC(C)=O)CS[C@H]12)c1csc(N)n1 [Cefotaxim]
Prevention of contamination [3]: without satisfactory results

CN[C@@H]1[C@H](O[C@H]2[C@H](O[C@H]3[C@H](O)[C@@H](O)[C@H](NC(=N)N)[C@@H](O)[C@@H]3NC(=N)N)O[C@@H](C)[C@]2(O)CO)O[C@@H](CO)[C@H](O)[C@H]1O [Dihydrostreptomycin]
Prevention of contamination [3]: without satisfactory results

CO[C@@H]1[C@@H](OC(N)=O)[C@@H](O)[C@H](Oc2ccc3c(O)c(NC(=O)c4ccc(O)c(CC=C(C)C)c4)c(=O)oc3c2C)OC1(C)C [Novobiocin]
Prevention of contamination [3]: without satisfactory results
